Here are results for 10 compounds from ChEMBL document CHEMBL5465560, “Selectivity Literature for EUbOPEN Chemogenomic Library” (2024).

For assay [1], the target named is Calcium/calmodulin-dependent protein kinase type 1D (Homo sapiens) (UniProt Q8IU85). In words: Selectivity interaction (Kinase panel (KiNativ target engagement assay in Jurkat cells)) EUB0001635a CAMK1D. The assay is classed as cell-based. Conditions: at 1 µM.
For assay [2], the target named is Protein arginine N-methyltransferase 3 (Homo sapiens, UniProt O60678). In words: Selectivity interaction (Methyltransferase screen (radiometric assays, panel of 8 PRMTs, 21 protein lysine methyltransferases, 3 DNA methyltransferases, and one RNA methyltransferase)) EUB0000271b PRMT3.
Protein arginine N-methyltransferase 3, sequence (O60678 2-531 limits assumed): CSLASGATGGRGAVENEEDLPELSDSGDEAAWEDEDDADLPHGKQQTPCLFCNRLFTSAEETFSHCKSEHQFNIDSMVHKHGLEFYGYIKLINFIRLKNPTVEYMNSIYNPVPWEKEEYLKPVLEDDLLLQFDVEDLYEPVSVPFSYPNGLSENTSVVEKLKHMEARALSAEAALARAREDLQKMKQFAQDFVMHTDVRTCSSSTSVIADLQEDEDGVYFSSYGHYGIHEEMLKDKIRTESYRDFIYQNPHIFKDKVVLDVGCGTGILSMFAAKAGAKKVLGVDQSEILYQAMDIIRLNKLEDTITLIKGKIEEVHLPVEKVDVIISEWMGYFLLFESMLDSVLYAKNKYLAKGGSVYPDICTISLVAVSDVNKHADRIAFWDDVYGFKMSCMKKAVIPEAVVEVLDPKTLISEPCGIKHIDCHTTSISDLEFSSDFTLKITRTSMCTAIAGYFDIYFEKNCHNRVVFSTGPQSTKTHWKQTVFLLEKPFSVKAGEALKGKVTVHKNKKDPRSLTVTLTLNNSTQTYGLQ
In assay [3] the target is T1, MAP kinase-activated protein kinase 5 (Homo sapiens) (UniProt Q8IW41).
T1 sequence (whole entry): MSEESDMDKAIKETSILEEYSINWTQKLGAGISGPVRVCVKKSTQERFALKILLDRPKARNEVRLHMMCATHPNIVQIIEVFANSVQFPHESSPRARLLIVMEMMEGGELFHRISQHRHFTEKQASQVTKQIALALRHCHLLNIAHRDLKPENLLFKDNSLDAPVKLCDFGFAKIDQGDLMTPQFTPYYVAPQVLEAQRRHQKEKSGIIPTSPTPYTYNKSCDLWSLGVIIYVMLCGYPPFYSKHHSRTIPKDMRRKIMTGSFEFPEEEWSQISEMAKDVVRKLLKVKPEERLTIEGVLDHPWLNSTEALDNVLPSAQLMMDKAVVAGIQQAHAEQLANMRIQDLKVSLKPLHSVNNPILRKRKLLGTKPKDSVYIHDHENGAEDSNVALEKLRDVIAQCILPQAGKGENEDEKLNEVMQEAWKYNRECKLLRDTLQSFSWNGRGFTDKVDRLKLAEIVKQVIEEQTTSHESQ
The assay is described as follows: Selectivity interaction (KinomeScan (DiscoverX)) EUB0000666a MAPKAPK5. As to conditions: at 10 µM.

Assay [4] deals with Phosphatidylinositol 4-phosphate 5-kinase type-1 alpha (Homo sapiens) (UniProt Q99755). The assay is described as follows: Selectivity interaction (KinomeScan (DiscoverX)) EUB0001619a PIP5K1A. As to conditions: at 1 µM.
Phosphatidylinositol 4-phosphate 5-kinase type-1 alpha (Homo sapiens), sequence (Q99755 whole entry): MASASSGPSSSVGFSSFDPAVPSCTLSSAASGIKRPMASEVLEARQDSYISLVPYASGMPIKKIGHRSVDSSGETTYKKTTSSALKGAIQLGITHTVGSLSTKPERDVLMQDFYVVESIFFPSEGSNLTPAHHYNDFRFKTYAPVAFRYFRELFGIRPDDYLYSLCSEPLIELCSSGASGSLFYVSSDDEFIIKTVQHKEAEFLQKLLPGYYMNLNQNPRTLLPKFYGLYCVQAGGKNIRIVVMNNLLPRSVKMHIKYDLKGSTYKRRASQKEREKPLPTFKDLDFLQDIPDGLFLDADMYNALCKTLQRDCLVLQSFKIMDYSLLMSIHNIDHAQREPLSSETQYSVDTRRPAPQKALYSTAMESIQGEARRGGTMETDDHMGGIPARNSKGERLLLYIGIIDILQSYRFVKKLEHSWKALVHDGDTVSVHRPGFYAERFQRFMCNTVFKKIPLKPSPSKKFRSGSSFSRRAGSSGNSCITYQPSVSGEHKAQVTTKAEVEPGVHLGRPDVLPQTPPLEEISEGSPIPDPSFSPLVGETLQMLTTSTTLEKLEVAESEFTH
Assay [5] addresses Tyrosine-protein kinase receptor UFO (Homo sapiens, UniProt P30530). In words: Selectivity interaction (Kinase panel (33PanQinase(R) Activity Assay)) EUB0000877a AXL.
For assay [6], the target named is Serine/threonine-protein kinase WNK2 (Homo sapiens) (UniProt Q9Y3S1). In words: Selectivity interaction (ActivX KiNativ screen (kinase selectivity in THP-1 cell lysates)) EUB0000639a WNK2. In kind it is subcellular. As to conditions: lysate, at 0.2 µM.
Assay [7] addresses Ephrin type-A receptor 4 (Homo sapiens, UniProt P54764). In words: Selectivity interaction (KinomeScan (DiscoverX)) EUB0001049a EPHA4. Conditions: at 1 µM.
Assay [8] concerns the target Protein-tyrosine kinase 6 (Homo sapiens, UniProt Q13882). The assay is described as follows: Selectivity interaction (ProQinase) EUB0000171b PTK6.
In assay [9] the target is T2, Cytoplasmic tyrosine-protein kinase BMX (Homo sapiens) (UniProt P51813).
T2 sequence (whole entry): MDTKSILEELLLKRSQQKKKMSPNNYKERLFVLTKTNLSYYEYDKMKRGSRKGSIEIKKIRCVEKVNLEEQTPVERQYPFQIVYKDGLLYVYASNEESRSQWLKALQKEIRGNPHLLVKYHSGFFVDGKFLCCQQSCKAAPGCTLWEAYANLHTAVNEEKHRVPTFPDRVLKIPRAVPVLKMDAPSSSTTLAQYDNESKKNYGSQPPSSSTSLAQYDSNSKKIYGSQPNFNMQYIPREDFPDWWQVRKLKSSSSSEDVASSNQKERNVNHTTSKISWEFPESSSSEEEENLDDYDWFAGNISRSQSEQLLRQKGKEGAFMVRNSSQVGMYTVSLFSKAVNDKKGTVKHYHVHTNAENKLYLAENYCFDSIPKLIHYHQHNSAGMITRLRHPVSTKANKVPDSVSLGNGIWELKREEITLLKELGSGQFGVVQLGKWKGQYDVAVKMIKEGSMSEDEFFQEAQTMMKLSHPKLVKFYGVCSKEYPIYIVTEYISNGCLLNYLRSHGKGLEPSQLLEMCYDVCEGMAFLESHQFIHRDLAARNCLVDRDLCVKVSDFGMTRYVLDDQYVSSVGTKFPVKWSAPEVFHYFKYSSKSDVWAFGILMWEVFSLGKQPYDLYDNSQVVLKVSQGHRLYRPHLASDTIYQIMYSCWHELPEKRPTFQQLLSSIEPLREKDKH
In words: Selectivity interaction (KinomeScan (DiscoverX)) EUB0000618a BMX. Conditions: at 10 µM.

The target in assay [10] is T3, SNF-related serine/threonine-protein kinase (Homo sapiens) (UniProt Q9NRH2).
T3 sequence (whole entry): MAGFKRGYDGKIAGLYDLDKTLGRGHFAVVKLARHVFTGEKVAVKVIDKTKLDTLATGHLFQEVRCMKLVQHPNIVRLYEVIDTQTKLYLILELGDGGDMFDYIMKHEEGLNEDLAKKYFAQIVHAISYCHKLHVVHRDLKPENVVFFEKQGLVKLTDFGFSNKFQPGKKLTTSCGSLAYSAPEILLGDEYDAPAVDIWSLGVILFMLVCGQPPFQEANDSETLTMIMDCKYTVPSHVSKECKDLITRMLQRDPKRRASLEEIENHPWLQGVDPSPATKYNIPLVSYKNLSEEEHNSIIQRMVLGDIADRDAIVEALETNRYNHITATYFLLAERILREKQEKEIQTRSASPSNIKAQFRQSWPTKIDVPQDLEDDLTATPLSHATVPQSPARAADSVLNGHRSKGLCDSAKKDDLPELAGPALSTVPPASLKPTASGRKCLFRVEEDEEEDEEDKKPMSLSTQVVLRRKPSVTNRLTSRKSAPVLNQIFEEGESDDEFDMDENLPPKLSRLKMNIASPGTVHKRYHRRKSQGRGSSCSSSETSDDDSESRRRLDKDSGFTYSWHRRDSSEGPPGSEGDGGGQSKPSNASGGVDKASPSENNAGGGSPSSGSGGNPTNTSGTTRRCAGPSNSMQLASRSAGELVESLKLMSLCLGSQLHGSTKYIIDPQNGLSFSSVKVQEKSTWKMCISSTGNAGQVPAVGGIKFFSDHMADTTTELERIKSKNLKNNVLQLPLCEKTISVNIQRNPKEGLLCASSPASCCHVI
In words: Selectivity interaction (KinomeScan (DiscoverX)) EUB0000595a SNRK. As to conditions: at 10 µM.

Protein-tyrosine kinase 6, sequence (Q13882 whole entry, looked up): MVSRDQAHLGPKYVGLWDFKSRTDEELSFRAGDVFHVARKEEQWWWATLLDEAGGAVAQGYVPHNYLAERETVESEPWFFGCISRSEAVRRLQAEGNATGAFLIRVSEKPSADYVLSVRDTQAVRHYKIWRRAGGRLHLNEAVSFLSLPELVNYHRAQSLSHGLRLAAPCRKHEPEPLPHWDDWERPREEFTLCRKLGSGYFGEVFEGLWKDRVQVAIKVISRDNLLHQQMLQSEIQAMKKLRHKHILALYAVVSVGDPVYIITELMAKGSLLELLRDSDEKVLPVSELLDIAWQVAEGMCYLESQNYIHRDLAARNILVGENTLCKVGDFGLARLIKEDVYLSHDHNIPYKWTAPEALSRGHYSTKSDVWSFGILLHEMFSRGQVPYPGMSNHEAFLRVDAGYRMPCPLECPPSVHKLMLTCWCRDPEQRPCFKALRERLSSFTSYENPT
Calcium/calmodulin-dependent protein kinase type 1D (Homo sapiens), sequence (Q8IU85 whole entry, looked up): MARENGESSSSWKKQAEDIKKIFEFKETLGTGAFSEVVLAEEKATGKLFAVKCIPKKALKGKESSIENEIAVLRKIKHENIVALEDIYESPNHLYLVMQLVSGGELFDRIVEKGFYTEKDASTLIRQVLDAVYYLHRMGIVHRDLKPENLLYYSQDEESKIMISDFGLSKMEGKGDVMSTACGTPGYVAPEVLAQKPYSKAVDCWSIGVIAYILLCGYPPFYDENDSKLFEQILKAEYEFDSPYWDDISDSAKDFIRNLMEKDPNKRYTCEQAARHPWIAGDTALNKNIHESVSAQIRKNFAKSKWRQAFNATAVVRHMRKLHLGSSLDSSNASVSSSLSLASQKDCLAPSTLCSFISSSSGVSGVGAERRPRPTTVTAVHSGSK
Ephrin type-A receptor 4, sequence (P54764 whole entry): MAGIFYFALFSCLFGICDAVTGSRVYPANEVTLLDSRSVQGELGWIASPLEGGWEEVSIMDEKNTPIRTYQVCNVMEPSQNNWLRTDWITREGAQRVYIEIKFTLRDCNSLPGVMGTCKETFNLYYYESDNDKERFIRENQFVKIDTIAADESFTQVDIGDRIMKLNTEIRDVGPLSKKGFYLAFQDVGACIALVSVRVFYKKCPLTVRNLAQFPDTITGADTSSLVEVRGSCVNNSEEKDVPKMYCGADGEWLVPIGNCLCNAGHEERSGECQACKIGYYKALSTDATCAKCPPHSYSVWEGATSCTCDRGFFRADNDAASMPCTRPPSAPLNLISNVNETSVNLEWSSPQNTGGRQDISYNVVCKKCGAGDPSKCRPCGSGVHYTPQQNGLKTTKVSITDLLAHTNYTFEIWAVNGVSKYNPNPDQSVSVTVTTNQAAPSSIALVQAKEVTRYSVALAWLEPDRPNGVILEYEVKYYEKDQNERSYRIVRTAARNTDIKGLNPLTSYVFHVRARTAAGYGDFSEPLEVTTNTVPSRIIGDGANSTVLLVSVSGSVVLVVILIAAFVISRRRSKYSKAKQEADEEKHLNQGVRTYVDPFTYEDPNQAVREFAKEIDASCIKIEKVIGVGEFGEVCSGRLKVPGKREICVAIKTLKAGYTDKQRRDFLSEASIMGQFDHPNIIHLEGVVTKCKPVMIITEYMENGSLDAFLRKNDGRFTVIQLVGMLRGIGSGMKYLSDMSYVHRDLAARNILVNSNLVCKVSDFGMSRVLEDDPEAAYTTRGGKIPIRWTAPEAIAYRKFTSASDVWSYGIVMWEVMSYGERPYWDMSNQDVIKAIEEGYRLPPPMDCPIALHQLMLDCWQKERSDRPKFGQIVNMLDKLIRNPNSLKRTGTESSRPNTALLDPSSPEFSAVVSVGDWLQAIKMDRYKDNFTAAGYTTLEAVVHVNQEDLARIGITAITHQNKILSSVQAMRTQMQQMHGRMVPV
Tyrosine-protein kinase receptor UFO, sequence (P30530 whole entry): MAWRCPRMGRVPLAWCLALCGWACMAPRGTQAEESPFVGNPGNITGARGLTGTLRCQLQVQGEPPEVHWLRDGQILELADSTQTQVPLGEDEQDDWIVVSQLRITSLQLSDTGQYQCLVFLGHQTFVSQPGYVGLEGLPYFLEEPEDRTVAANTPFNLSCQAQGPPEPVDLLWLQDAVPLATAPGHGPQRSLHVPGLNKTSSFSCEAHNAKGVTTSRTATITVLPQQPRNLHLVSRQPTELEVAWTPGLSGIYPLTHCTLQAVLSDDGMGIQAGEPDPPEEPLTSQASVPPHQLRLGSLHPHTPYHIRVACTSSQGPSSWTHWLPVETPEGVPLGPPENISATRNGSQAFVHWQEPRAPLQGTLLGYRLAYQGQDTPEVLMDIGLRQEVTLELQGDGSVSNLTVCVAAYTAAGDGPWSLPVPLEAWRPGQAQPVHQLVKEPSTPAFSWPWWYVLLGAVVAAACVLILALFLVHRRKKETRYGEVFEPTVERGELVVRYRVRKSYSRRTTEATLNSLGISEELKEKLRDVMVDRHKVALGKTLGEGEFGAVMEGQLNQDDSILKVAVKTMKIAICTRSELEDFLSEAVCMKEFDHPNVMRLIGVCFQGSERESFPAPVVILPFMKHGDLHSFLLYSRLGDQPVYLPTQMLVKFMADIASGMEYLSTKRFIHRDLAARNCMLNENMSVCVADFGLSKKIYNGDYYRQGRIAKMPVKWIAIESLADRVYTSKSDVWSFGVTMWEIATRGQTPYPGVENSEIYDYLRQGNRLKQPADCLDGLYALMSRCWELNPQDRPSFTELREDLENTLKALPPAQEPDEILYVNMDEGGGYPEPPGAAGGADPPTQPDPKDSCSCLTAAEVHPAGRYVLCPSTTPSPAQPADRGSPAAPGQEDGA

Turning to `C=CC(=O)Nc1ccc(C(=O)Nc2[nH]nc3c2CN(C(=O)N[C@H](CN(C)C)c2ccccc2)C3(C)C)cc1`, the % of engagement in assay [1] (Selectivity number of off-targets 0.0, Selectivity number of targets 233.0, Source Knowledge https://www.sciencedirect.com/science/article/pii/S2451945619300674?via%3Dihub) was determined as 18.9%; in assay [1], 8.9%.
Regarding `Cc1cc(C)cc([C@@H]2c3cc(C)ccc3NC(=O)CN2C(=O)c2ccc(Br)s2)c1`, the % of activity stood at 100% in assay [2] (at 1 µM) and 98% in assay [2] (at 10 µM).
For `O=C(NOC[C@H](O)CO)c1ccc(F)c(F)c1Nc1ccc(I)cc1F`, in assay [3], the % of control is 100%.
On to `N#Cc1cccc(-c2c[nH]c3ncnc(N4CCOCC4)c23)c1`, for which the % of control in [4] amounted to 20%.
Take `CCC(=O)N1CC[C@H](Nc2ncnc3c2CN(c2cnc(OC)c(C(F)(F)F)c2)CC3)C1` [LENIOLISIB]: the IC50 in assay [5] was > 10 µM.
For `CC[C@@H]1[C@H](F)C(=O)N[C@@H]1COc1nccc2cc(C(N)=O)c(OC)cc12` [ZIMLOVISERTIB], the % of inhibition in assay [6] was -12%.
The compound `COc1cc(Nc2nc(C)cc(-c3cnn4nc(OC)ccc34)n2)cc(C(F)(F)F)c1` yielded a % of control in assay [7] of 100%.
Regarding `C=CC(=O)Nc1cccc(C(=O)Nc2ccc(Nc3cc(-c4[nH]c(SC)nc4C)ccn3)cc2)c1`, the % of control in assay [8] (at 1 µM) was 101%; in assay [8] (at 5 µM), 105%.
`O[C@H]1CC[C@H](Nc2ncc3nc(Nc4c(F)cc(F)cc4F)n([C@H]4CCOC4)c3n2)CC1` yielded a % of control in assay [9] of 100%.
`COCC(=O)NC/C=C/c1ccc2ncnc(Nc3ccc(Oc4ccc(C)nc4)c(C)c3)c2c1` [CP-724714] came in with a % of control in [10] of 71%.

By IC50 is commonly meant the concentration that gives 50% inhibition. High values mean a need for much substance, low ones inhibition by little substance.
